Test results taken from ChEMBL document CHEMBL5352447, “Development of [1,2]oxazoloisoindoles tubulin polymerization inhibitors: Further chemical modifications and potential therapeutic effects against lymphomas” (Eur J Med Chem, 2022).

These compounds were tested on CCRF-CEM (assay: Antiproliferative activity against human CCRF-CEM cells assessed as cell growth inhibition incubated for 72 hrs by MTT assay).
Type: functional

SMILES | GI50
COc1ccc(Cn2cc3c(c2-c2cc(OC)c(OC)c(OC)c2)CCc2c(CO)noc2-3)cc1 | 320 nM

What follows are compounds tested on HL-60(TB) (assay: Antiproliferative activity against human HL-60(TB) cells assessed as cell growth inhibition incubated for 72 hrs by MTT assay).
Type: functional

SMILES | GI50
COc1ccc(Cn2cc3c(c2-c2cc(OC)c(OC)c(OC)c2)CCc2c(CO)noc2-3)cc1 | 210 nM

These compounds were tested on MOLT-4 (assay: Antiproliferative activity against human MOLT-4 cells assessed as cell growth inhibition incubated for 72 hrs by MTT assay).
Type: functional

SMILES | GI50
COc1ccc(Cn2cc3c(c2-c2cc(OC)c(OC)c(OC)c2)CCc2c(CO)noc2-3)cc1 | 440 nM

These compounds were tested on RPMI-8226 (assay: Antiproliferative activity against human RPMI-8226 cells assessed as cell growth inhibition incubated for 72 hrs by MTT assay).
Type: functional

SMILES | GI50
COc1ccc(Cn2cc3c(c2-c2cc(OC)c(OC)c(OC)c2)CCc2c(CO)noc2-3)cc1 | 420 nM

The compounds below were run on SR (assay: Antiproliferative activity against human SR cells assessed as cell growth inhibition incubated for 72 hrs by MTT assay).
Type: functional

SMILES | GI50
COc1ccc(Cn2cc3c(c2-c2cc(OC)c(OC)c(OC)c2)CCc2c(CO)noc2-3)cc1 | 210 nM

These compounds were tested on EKVX (assay: Antiproliferative activity against human EKVX cells assessed as cell growth inhibition incubated for 72 hrs by MTT assay).
Type: functional

SMILES | GI50
COc1ccc(Cn2cc3c(c2-c2cc(OC)c(OC)c(OC)c2)CCc2c(CO)noc2-3)cc1 | 510 nM

These compounds were tested on NCI-H23 (assay: Antiproliferative activity against human NCI-H23 cells assessed as cell growth inhibition incubated for 72 hrs by MTT assay).
Type: functional

SMILES | GI50
COc1ccc(Cn2cc3c(c2-c2cc(OC)c(OC)c(OC)c2)CCc2c(CO)noc2-3)cc1 | 520 nM

The compounds below were run on NCI-H522 (assay: Antiproliferative activity against human NCI-H522 cells assessed as cell growth inhibition incubated for 72 hrs by MTT assay).
Type: functional

SMILES | GI50
COc1ccc(Cn2cc3c(c2-c2cc(OC)c(OC)c(OC)c2)CCc2c(CO)noc2-3)cc1 | 150 nM

What follows are compounds tested on HCC 2998 (assay: Antiproliferative activity against human HCC 2998 cells assessed as cell growth inhibition incubated for 72 hrs by MTT assay).
Type: functional

SMILES | GI50
COc1ccc(Cn2cc3c(c2-c2cc(OC)c(OC)c(OC)c2)CCc2c(CO)noc2-3)cc1 | 1340 nM

Each compound was assayed on HCT-116 (assay: Antiproliferative activity against human HCT-116 cells assessed as cell growth inhibition incubated for 72 hrs by MTT assay).
Type: functional

SMILES | GI50
COc1ccc(Cn2cc3c(c2-c2cc(OC)c(OC)c(OC)c2)CCc2c(CO)noc2-3)cc1 | 270 nM

These compounds were tested on HCT-15 (assay: Antiproliferative activity against human HCT-15 cells assessed as cell growth inhibition incubated for 72 hrs by MTT assay).
Type: functional

SMILES | GI50
COc1ccc(Cn2cc3c(c2-c2cc(OC)c(OC)c(OC)c2)CCc2c(CO)noc2-3)cc1 | 260 nM

Each compound was assayed on SW-620 (assay: Antiproliferative activity against human SW620 cells assessed as cell growth inhibition incubated for 72 hrs by MTT assay).
Type: functional

SMILES | GI50
COc1ccc(Cn2cc3c(c2-c2cc(OC)c(OC)c(OC)c2)CCc2c(CO)noc2-3)cc1 | 370 nM

What follows are compounds tested on SF-295 (assay: Antiproliferative activity against human SF-295 cells assessed as cell growth inhibition incubated for 72 hrs by MTT assay).
Type: functional

SMILES | GI50
COc1ccc(Cn2cc3c(c2-c2cc(OC)c(OC)c(OC)c2)CCc2c(CO)noc2-3)cc1 | 180 nM

Each compound was assayed on SF-539 (assay: Antiproliferative activity against human SF-539 cells assessed as cell growth inhibition incubated for 72 hrs by MTT assay).
Type: functional

SMILES | GI50
COc1ccc(Cn2cc3c(c2-c2cc(OC)c(OC)c(OC)c2)CCc2c(CO)noc2-3)cc1 | 230 nM

These compounds were tested on SNB-19 (assay: Antiproliferative activity against human SNB-19 cells assessed as cell growth inhibition incubated for 72 hrs by MTT assay).
Type: functional

SMILES | GI50
COc1ccc(Cn2cc3c(c2-c2cc(OC)c(OC)c(OC)c2)CCc2c(CO)noc2-3)cc1 | 390 nM

These compounds were tested on SNB-75 (assay: Antiproliferative activity against human SNB-75 cells assessed as cell growth inhibition incubated for 72 hrs by MTT assay).
Type: functional

SMILES | GI50
COc1ccc(Cn2cc3c(c2-c2cc(OC)c(OC)c(OC)c2)CCc2c(CO)noc2-3)cc1 | 180 nM

What follows are compounds tested on U-251 (assay: Antiproliferative activity against human U-251 cells assessed as cell growth inhibition incubated for 72 hrs by MTT assay).
Type: functional

SMILES | GI50
COc1ccc(Cn2cc3c(c2-c2cc(OC)c(OC)c(OC)c2)CCc2c(CO)noc2-3)cc1 | 330 nM

Each compound was assayed on Malme-3M (assay: Antiproliferative activity against human Malme-3M cells assessed as cell growth inhibition incubated for 72 hrs by MTT assay).
Type: functional

SMILES | GI50
COc1ccc(Cn2cc3c(c2-c2cc(OC)c(OC)c(OC)c2)CCc2c(CO)noc2-3)cc1 | 13500 nM

Each compound was assayed on M14 (assay: Antiproliferative activity against human M14 cells assessed as cell growth inhibition incubated for 72 hrs by MTT assay).
Type: functional

SMILES | GI50
COc1ccc(Cn2cc3c(c2-c2cc(OC)c(OC)c(OC)c2)CCc2c(CO)noc2-3)cc1 | 150 nM

The compounds below were run on MDA-MB-435 (assay: Antiproliferative activity against human MDA-MB-435 cells assessed as cell growth inhibition incubated for 72 hrs by MTT assay).
Type: functional

SMILES | GI50
COc1ccc(Cn2cc3c(c2-c2cc(OC)c(OC)c(OC)c2)CCc2c(CO)noc2-3)cc1 | 30 nM

What follows are compounds tested on SK-MEL-2 (assay: Antiproliferative activity against human SK-MEL-2 cells assessed as cell growth inhibition incubated for 72 hrs by MTT assay).
Type: functional

SMILES | GI50
COc1ccc(Cn2cc3c(c2-c2cc(OC)c(OC)c(OC)c2)CCc2c(CO)noc2-3)cc1 | 460 nM

The compounds below were run on SK-MEL-28 (assay: Antiproliferative activity against human SK-MEL-28 cells assessed as cell growth inhibition incubated for 72 hrs by MTT assay).
Type: functional

SMILES | GI50
COc1ccc(Cn2cc3c(c2-c2cc(OC)c(OC)c(OC)c2)CCc2c(CO)noc2-3)cc1 | 3600 nM

These compounds were tested on SK-MEL-5 (assay: Antiproliferative activity against human SK-MEL-5 cells assessed as cell growth inhibition incubated for 72 hrs by MTT assay).
Type: functional

SMILES | GI50
COc1ccc(Cn2cc3c(c2-c2cc(OC)c(OC)c(OC)c2)CCc2c(CO)noc2-3)cc1 | 210 nM
